Measurements as given in patent US20250136594A1 (Tango Therapeutics, Inc., priority 2022, published 2025).
Like-named read-outs stand apart in the source and are kept apart here.

What was measured:
[1] = tested on: SDMA in HAP1 MTAP-deleted (MTAP-null) cell line (PRMT5 inhibition); test: SDMA in-cell western assay, HAP1 MTAP-deleted cell line; settings: for IC50 / IC90: Homo sapiens; for IC50: HAP1, read-out: Hap1 MTAP deleted IC50; for IC90: HAP1, read-out: Hap1 MTAP deleted IC90; for Hap1 MTAP intact/deleted ratio: ratio of SDMA IC50 in HAP1 MTAP-intact to HAP1 MTAP-deleted cell line
[2] = tested on: HAP1 MTAP-deleted cell line; test: Viability assay, HAP1 MTAP-deleted cell line; type: cell-based; settings: Homo sapiens
[3] = tested on: SDMA in HAP1 MTAP-intact cell line (PRMT5 inhibition); test: SDMA in-cell western assay, HAP1 MTAP-intact cell line; settings: Homo sapiens, HAP1, read-out: Hap1 MTAP intact IC50
[4] = viability assay, HAP1 MTAP-deleted cell line, read-out: Hap1 MTAP deleted viability IC50

IC50 [1] [nM]	IC90 [1] [nM]	IC50 [3] [nM]	SMILES	Hap1 MTAP intact/deleted ratio [1]	IC50 [2, 4] [nM]	IC50 ([2]; HAP1, read-out: Hap1 MTAP deleted viability IC50) [nM]
5 to 50	> 125	> 50	COC[C@@H](C1CC1)N(Cc1ccc(C(F)(F)F)cn1)C(=O)C(=O)Nc1ccn2ccnc2c1 [Compound 31, (R)—N^1-(1-cyclopropyl-2-methoxyethyl)-N^2-(imidazo[1,2-a]pyridin-7-yl)-N^1-((5-(trifluoromethyl)pyridin-2-yl)methyl)oxalamide]	B (IC50 ratio greater than or equal to 15 fold but lower than 30 fold)	100 to 1000	
< 5	< 75	> 50	Nc1ncc(NC(=O)C(=O)N(Cc2ccccn2)Cc2ccccn2)c2[nH]ncc12 [Compound 89, N-(4-amino-1H-pyrazolo[4,3-c]pyridin-7-yl)-N′,N′-bis(2-pyridylmethyl)oxamide]	A (IC50 ratio greater than or equal to 30 fold)	< 100	
< 5	< 75	> 50	Nc1ncc(NC(=O)C(=O)N(Cc2ccccc2)Cc2ccc(F)cn2)c2[nH]ncc12 [Compound 68, N-(4-amino-1H-pyrazolo[4,3-c]pyridin-7-yl)-N′-benzyl-N′-[(5-fluoro-2-pyridyl)methyl]oxamide]	A (IC50 ratio greater than or equal to 30 fold)	< 100	
< 5	< 75	> 50	COc1ncc(NC(=O)C(=O)N(Cc2ccc(C(F)(F)F)cn2)[C@@H]2CCc3ccccc32)cc1C(N)=O [Compound 30, (R)-N1-(5-carbamoyl-6-methoxypyridin-3-yl)-N^2-(2,3-dihydro-1H-inden-1-yl)-N^2-((5-(trifluoromethyl)pyridin-2-yl)methyl)oxalamide]	A (IC50 ratio greater than or equal to 30 fold)	< 100	
5 to 50	75 to 125	> 50	CC(C)CN(C(=O)C(=O)Nc1cnc(N)c2cn[nH]c12)[C@@H](C)c1ccccc1 [Compound 165, (S)—N^1-(4-amino-1H-pyrazolo[4,3-c]pyridin-7-yl)-N^2-isobutyl-N^2-(1-phenylethyl)oxalamide]	A (IC50 ratio greater than or equal to 30 fold)	< 100	
< 5	< 75	5 to 50	Cc1ccccc1CN(Cc1ccc(F)cc1)C(=O)C(=O)Nc1cnc(N)c2cn[nH]c12 [Compound 173, N-(4-amino-1H-pyrazolo[4,3-c]pyridin-7-yl)-N′-[(4-fluorophenyl)methyl]-N′-(o-tolylmethyl)oxamide]	C (IC50 ratio of less than 15 fold)	< 100	
< 5	< 75	> 50	Nc1ncc(NC(=O)C(=O)N(Cc2ccccc2)Cn2cccn2)c2[nH]ncc12 [Compound 181, N-(4-amino-1H-pyrazolo[4,3-c]pyridin-7-yl)-N′-benzyl-N′-(pyrazol-1-ylmethyl)oxamide]	A (IC50 ratio greater than or equal to 30 fold)	100 to 1000	
< 5	< 75	5 to 50	Cc1ccc(CN(Cc2ccccc2)C(=O)C(=O)Nc2cnc(N)c3cn[nH]c23)c(C)c1 [Compound 98, N-(4-amino-1H-pyrazolo[4,3-c]pyridin-7-yl)-N′-benzyl-N′—[(2,4-dimethylphenyl)methyl]oxamide]	B (IC50 ratio greater than or equal to 15 fold but lower than 30 fold)	< 100	
< 5	< 75	> 50	C[C@H](c1ccc(C(F)(F)F)cc1C(F)(F)F)N(C)C(=O)C(=O)Nc1cnc(N)c2cn[nH]c12 [Compound 193, N-(4-Amino-2H-pyrazolo[4,3-c]pyridin-7-yl)-N′-methyl-N′—[(1R)-1-[2,4-bis (trifluoromethyl)phenyl]ethyl]oxamide]			< 100
< 5	< 75	5 to 50	CC[C@@H](C)CN(Cc1ccccc1C)C(=O)C(=O)Nc1cnc(N)c2cn[nH]c12 [Compound 62, (R)—N^1-(4-amino-1H-pyrazolo[4,3-c]pyridin-7-yl)-N^2-(2-methylbenzyl)-N^2-(2-methylbutyl)oxalamide]	A (IC50 ratio greater than or equal to 30 fold)	< 100	
5 to 50	> 125	5 to 50	Cc1cc(NC(=O)C(=O)N(Cc2ccc(C(F)(F)F)cn2)[C@@H](C)c2ncccn2)cnc1N [Compound 49, N-(6-amino-5-methyl-3-pyridyl)-N′—[(1S)-1-pyrimidin-2-ylethyl]-N′-[[5-(trifluoromethyl)-2-pyridyl]methyl]oxamide]	C (IC50 ratio of less than 15 fold)	100 to 1000	
5 to 50	> 125	> 50	CCc1cc(NC(=O)C(=O)N(Cc2ccc(C(F)(F)F)cn2)C(C)C(C)C)cnc1N (stereo not drawn) [Compound 42, N-(6-amino-5-ethyl-3-pyridyl)-N′-(1,2-dimethylpropyl)-N′-[[5-(trifluoromethyl)-2-pyridyl]methyl]oxamide]	B (IC50 ratio greater than or equal to 15 fold but lower than 30 fold)	100 to 1000	
< 5	< 75	5 to 50	C[C@H](c1ccc(C(F)(F)F)cc1F)N(C)C(=O)C(=O)Nc1cnc(N)c2c1cnn2C [Compound 84, N-(7-Amino-1-methyl-pyrazolo[3,4-c]pyridin-4-yl)-N′-methyl-N′—[(1R)-1-[2-fluoro-4-(trifluoromethyl)phenyl]ethyl]oxamide]	A (IC50 ratio greater than or equal to 30 fold)	< 100	
< 5	75 to 125	> 50	Nc1ncc(NC(=O)C(=O)N(Cc2ccc(C(F)(F)F)cn2)C2CC2)c2[nH]ncc12 [Compound 159, N-(4-Amino-1H-pyrazolo[4,3-c]pyridin-7-yl)-N′-cyclopropyl-N′-[[5-(trifluoromethyl)-2-pyridyl]methyl]oxamide]	B (IC50 ratio greater than or equal to 15 fold but lower than 30 fold)	< 100	
< 5	< 75	5 to 50	CNc1cccc(CN(Cc2ccccc2)C(=O)C(=O)Nc2cnc(N)c3cn[nH]c23)c1 [Compound 93, N-(4-amino-1H-pyrazolo[4,3-c]pyridin-7-yl)-N′-benzyl-N′-[[3-(methylamino)phenyl]methyl]oxamide]	B (IC50 ratio greater than or equal to 15 fold but lower than 30 fold)	< 100	
< 5	< 75	5 to 50	Cc1cccnc1CN(C(=O)C(=O)Nc1cnc(N)c2cn[nH]c12)C(C)C(C)C (single isomer, unassigned) [Compound 106]	C (IC50 ratio of less than 15 fold)	< 100	
5 to 50	> 125	> 50	COC[C@@H](C1CC1)N(Cc1ccc(C(F)(F)F)cn1)C(=O)C(=O)Nc1cnc(N)c(C2CC2)c1 [Compound 45, (R)—N^1-(6-amino-5-cyclopropylpyridin-3-yl)-N^2-(1-cyclopropyl-2-methoxyethyl)-N^2-((5-(trifluoromethyl)pyridin-2-yl)methyl)oxalamide]	A (IC50 ratio greater than or equal to 30 fold)	100 to 1000	
